Our source for the Kp values is ChEMBL document CHEMBL3868634, “Animal models in the pharmacokinetic/pharmacodynamic evaluation of antimicrobial agents” (Bioorg Med Chem, 2016).

This series in a line: Ratio of AUC in mouse epithelial lining fluid to AUC in mouse serum. Conditions: read-out: Ratio AUC. In kind it is ADME.

On to `CC(C)(O/N=C(\C(=O)N[C@@H]1C(=O)N2C(C(=O)[O-])=C(C[n+]3ccccc3)CS[C@H]12)c1csc(N)n1)C(=O)O` [CEFTAZIDIME], for which the Kp worked out at 0.201.
